This is an account of results in patent US20060223792A1, “Phenyl and pyridyl LTA4H modulators” (priority 2005, published 2006).

Assay [1] deals with T1, recombinant human LTA4 hydrolase (rhLTA4H) (Homo sapiens, UniProt P09960).
T1 construct: made in house; host or cells: Spodoptera frugiperda (Sf-9) cells, baculovirus (pFastBac1)
T1 sequence (P09960 1-611): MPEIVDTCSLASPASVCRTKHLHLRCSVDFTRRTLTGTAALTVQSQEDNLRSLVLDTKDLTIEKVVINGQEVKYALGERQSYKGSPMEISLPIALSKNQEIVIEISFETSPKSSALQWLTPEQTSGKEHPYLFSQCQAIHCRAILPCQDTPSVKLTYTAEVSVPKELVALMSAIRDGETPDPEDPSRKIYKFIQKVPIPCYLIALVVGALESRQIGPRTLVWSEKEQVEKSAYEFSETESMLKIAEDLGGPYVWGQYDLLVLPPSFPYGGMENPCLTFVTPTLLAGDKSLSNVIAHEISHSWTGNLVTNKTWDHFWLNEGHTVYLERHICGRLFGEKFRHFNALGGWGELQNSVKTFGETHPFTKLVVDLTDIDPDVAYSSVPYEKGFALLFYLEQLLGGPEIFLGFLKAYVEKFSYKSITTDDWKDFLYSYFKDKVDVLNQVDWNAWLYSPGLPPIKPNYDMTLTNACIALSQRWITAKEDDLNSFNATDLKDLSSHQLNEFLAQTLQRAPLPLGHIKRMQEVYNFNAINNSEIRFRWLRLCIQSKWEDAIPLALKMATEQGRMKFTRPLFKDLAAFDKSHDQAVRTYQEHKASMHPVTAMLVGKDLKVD
Description: Recombinant human LTA4 hydrolase assay for LTA4 hydrolase inhibitor activity. The assay is classed as biochemical. As to conditions: recombinant human LTA4H, LTB4 quantified by enzyme-linked immunoassay; average of one to three determinations; read-out: IC50. The method in brief:
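Sf-9-expressed rhLTA4H (36 ng) preincubated 10 min at rt with compound in 0.1 M potassium phosphate pH 7.4, 5 mg/mL fatty-acid-free BSA; 9 ng LTA4 free acid added, 10 min at rt in 225 μL. LTB4 measured by enzyme immunoassay; IC50 from 4-parameter fit, mean of one to three determinations.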

The subject of assay [2] is LTB4 production by calcium ionophore-stimulated murine blood. Description: LTB4 production by calcium ionophore-stimulated murine blood for LTA4H inhibitor activity. The assay is classed as cell-based, CD-1 mice. As to conditions: diluted CD-1 mouse whole blood, calcium ionophore A23187, LTB4 by enzyme-linked immunoassay. On the procedure:
LTB4 Production by Calcium Ionophore-Stimulated Murine Blood for LTA4H Inhibitor Activity
CD-1 mice were sacrificed, and blood was collected in heparin-containing syringes by cardiac puncture. The blood was diluted 1:15 with RPMI-1640 medium, and 200-μL aliquots of the diluted blood were added to wells of a 96-well microtiter plate. LTA4H inhibitor test compounds were prepared at different concentrations in RPMI-1640 medium containing […], and 20 μL of each test solution was added to a well containing diluted whole blood (final DMSO concentration of 0.1%). After the microtiter plate contents were incubated for 15 min at 37° C. in a humidified incubator, calcium ionophore A23187 (Sigma Chemical Co., St. Louis, Mo.) was added to each sample well (final concentration=20 ng/mL). The incubation was continued under the same conditions for an additional 10 min to allow LTB4 formation. The reaction was terminated by centrifugation (833×g, 10 min at 4° C.), and supernatants were analyzed for LTB4 by a commercially available enzyme-linked immunoassay (Cayman Chemical Co.) according to the manufacturer's instructions. Positive controls, under essentially identical conditions but without addition of an inhibitor compound, and negative unstimulated controls, containing all assay components except calcium ionophore, were routinely run in each experiment. IC50 values were determined by fitting the activity data at different compound concentrations to a 4-parameter equation using the Grafit program (Erithacus software).

The term IC50 denotes the concentration at which inhibition is half-maximal. With `CN(C(=O)Oc1ccc(OCCN2CCC(O)(c3ccccc3)CC2)cc1)c1ccccc1` [Example 40, Methyl-phenyl-carbamic acid 4-[2-(4-hydroxy-4-phenyl-piperidin-1-yl)-ethoxy]-phenyl ester], the concentration for half-maximal inhibition (IC50) in assay [1] came out at 73 nM; in assay [2], 150 nM.

For `O=C(O)C1CCN(CCc2ccc(OCCc3ccccc3)cc2)CC1` [Example 81, 1-[2-(4-Phenethyloxy-phenyl)-ethyl]-piperidine-4-carboxylic acid], the IC50 in assay [1] was determined as 19 nM; in assay [2], 181 nM.

Regarding `O=C(O)C1CCN(Cc2ccc(OCCc3ccccc3)cc2)CC1` [Example 96, 1-(4-Phenethyloxy-benzyl)-piperidine-4-carboxylic acid], the IC50 stood at 10 nM in assay [1] and 7 nM in assay [2].

Turning to `O=C1CCCN1C1CCN(Cc2ccc(OCCc3ccccc3)cc2)CC1` [Example 99, 1-[1-(4-Phenethyloxy-benzyl)-piperidin-4-yl]-pyrrolidin-2-one], the IC50 in assay [1] turned out to be 17 nM; in assay [2], 123 nM.

In the case of `O=C(O)C1CCN(Cc2ccc(OCCCc3ccccc3)cc2)CC1` [Example 112, 1-[4-(3-Phenyl-propoxy)-benzyl]-piperidine-4-carboxylic acid], the IC50 amounted to 4 nM in assay [1] and 10 nM in assay [2].

Regarding `O=C(O)C1CCN(CCOc2ccc(OCCCc3ccccc3)cc2)CC1` [Example 117, 1-{2-[4-(3-Phenyl-propoxy)-phenoxy]-ethyl}-piperidine-4-carboxylic acid], the IC50 in assay [1] is 51 nM; in assay [2], 79 nM.
